For five molecules, IC50 results are on record in US20040002526A1, “Phospholipase D inhibitors and uses thereof” (Cell Therapeutics, Inc., priority 2002, published 2004).

The target of the assay is T1, PLD (phospholipase D).
T1 construct: fused on or other part: N-terminal polyhistidine tag (pFastBac HTc) on either enzyme
Kind of assay: In vitro assay of PLD activity ([3H]-choline release from labelled PC). The assay is classed as biochemical, human. The conditions noted are these: PLD isoform not stated. On the procedure:
Recombinant PLD1 and PLD2—Human PLD1 and PLD2 were isolated from Sf9 insect cells that had been infected with recombinant baculovirus vector, pFastBac™HTc vector (Life Technologies, Gaithersburg, Md.), containing PLD1 or PLD2 cDNAs.
PLD1 activity was assayed by measuring the generation of [^3H]-choline from [choline-methyl^3H](16:0, 16:0)PC.
The assay procedure for PLD2 was similar to that for PLD1, with the exception that arf1, PKC-α, and GTPγS were omitted from the reaction mixture. After addition of enzymes, the reactions were incubated for 1 hour at room temperature. Twenty microliters of 12% trichloroacetic acid (TCA) then were added to each sample, to stop the reaction and to precipitate the unreacted [choline-methyl^3H](16:0, 16:0)PC. Thereafter, the samples were passed through 0.65 μm Millipore 96 well filter plates to removed the excess [choline-methyl^3H](16:0, 16:0)PC. For each sample the filtrate (50 μl), which contained the [^3H]-choline released by PLD cleavage of PC, was analyzed using a TopCount™ Liquid Scintillation Counter, a product of Packard (Meriden, Conn.).

The mark [1] stands for this setting: Table 1, monocyclic thiazolidinones of Formula I, read-out: IC50.

Read-outs that look alike come from different tables or passages of the source.

The IC50 is the midpoint of a concentration-inhibition curve. As for `C=CCN1C(=O)/C(=C\c2ccc(-c3cccc(C(=O)O)c3)o2)SC1=S` [Compound 20, 3-[5-(3-allyl-4-oxo-2-thioxo-thiazolidin-5-ylidenemethyl)-furan-2-yl]-benzoic acid], the IC50 under setting [1] came out at 0.5 µM.

Take `COC(=O)c1ccc(-c2ccc(/C=C3\SC(=S)N(Cc4cc(OC)c(OC)c(OC)c4)C3=O)s2)cc1` [Compound 36, 4-{5-[4-oxo-2-thioxo-3-(3,4,5-trimethoxy-benzyl)-thiazolidin-5-ylidenemethyl]-thiophen-2-yl}-benzoic acid methyl ester]: the IC50 result (Table 1, monocyclic thiazolidinones of Formula I) is “less active”.

As for `Cc1cc2nc3s/c(=C/c4ccc(-c5cccc(C(=O)O)c5)o4)c(=O)n3c2cc1C` [Compound 61, 3-[5-(6,7-Dimethyl-3-oxo-benzo[4,5]imidazo[2,1-b]thiazol-2-ylidenemethyl)-furan-2-yl]-benzoic acid], under “Table 3, tricyclic thiazolidinones of Formula II, read-out: IC50”, the IC50 amounted to 3.4 µM.

As to `Cc1ccc(CN2C(=O)/C(=C/c3ccc(-c4ccc(S(N)(=O)=O)cc4)o3)SC2=S)cc1` [Compound 38, 4-{5-[3-(4-methyl-benzyl)-4-oxo-2-thioxo-thiazolidin-5-ylidenemethyl]-furan-2-yl}-benzenesulfonamide], the IC50 under setting [1] amounted to 6 µM.

Take `O=C(O)c1cccc(-c2ccc(/C=C3\SC(=S)N(c4cccc(F)c4)C3=O)o2)c1` [Compound 18, 3-{5-[3-(3-fluoro-phenyl)-4-oxo-2-thioxo-thiazolidin-5-ylidenemethyl]-furan-2-yl}-benzoic acid]: the IC50 under setting [1] was under 0.4 µM.
